Experiments:
Test in all cases: relative viability (nuclei count vs DMSO), 5 days (fraction); higher = more cells survive
Mirin + Decitabine = compound: N=C1NC(=O)/C(=C/c2ccc(O)cc2)S1 [Mirin] + Nc1ncn([C@H]2C[C@H](O)[C@@H](CO)O2)c(=O)n1 [Decitabine] (partner 2 µM)
How it was run: (§1)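 After 5 days of treatment, lung cancer cells in 1536-well plates were fixed and stained in a single step (final 0.05% Triton X-100, 1% formaldehyde, 1 ug/ml Hoechst) and their nuclei counted on 4× images. Treatment had been applied by pin tool the day after seeding as one drug alone or as a fixed anchor-drug dose with five library-drug doses (not always all listed) in √10 steps. Relative viability is the nuclei count of treated wells divided by that of vehicle wells, and values are medians of duplicate plates.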

[1] = compound: CCC1=CN=CN=C1N2CCN(CC2)CC3=NC4=C(N3)C=C(C=C4)C(F)(F)F + CC(=O)Nc1cccc(-n2c(=O)n(C3CC3)c(=O)c3c(Nc4ccc(I)cc4F)n(C)c(=O)c(C)c32)c1 [Trametinib] (partner 0.02 µM)
How it was run: as §1

Mirin + Alpelisib = compound: N=C1NC(=O)/C(=C/c2ccc(O)cc2)S1 [Mirin] + Cc1nc(NC(=O)N2CCC[C@H]2C(N)=O)sc1-c1ccnc(C(C)(C)C(F)(F)F)c1 [Alpelisib] (partner 2 µM)
How it was run: as §1

[2] = compound: CCC1=CN=CN=C1N2CCN(CC2)CC3=NC4=C(N3)C=C(C=C4)C(F)(F)F + Nc1nc2[nH]cc(CCc3ccc(C(=O)N[C@@H](CCC(=O)O)C(=O)O)cc3)c2c(=O)[nH]1 [Pemetrexed] (partner 0.2 µM)
How it was run: as §1

Cell Line	relative viability (Mirin + Decitabine; first compound 0.25 µM)	relative viability (Mirin + Decitabine; first compound 0.7906 µM)	relative viability (Mirin + Decitabine; first compound 2.5 µM)	relative viability (Mirin + Decitabine; first compound 7.906 µM)	relative viability (Mirin + Decitabine; first compound 25 µM)	relative viability ([1]; first compound 0.04 µM)	relative viability ([1]; first compound 0.1265 µM)	relative viability ([1]; first compound 0.4 µM)	relative viability ([1]; first compound 1.265 µM)	relative viability ([1]; first compound 4 µM)	relative viability (Mirin + Alpelisib; first compound 0.25 µM)	relative viability (Mirin + Alpelisib; first compound 0.7906 µM)	relative viability (Mirin + Alpelisib; first compound 2.5 µM)	relative viability (Mirin + Alpelisib; first compound 7.906 µM)	relative viability (Mirin + Alpelisib; first compound 25 µM)	relative viability ([2]; first compound 0.04 µM)	relative viability ([2]; first compound 0.1265 µM)	relative viability ([2]; first compound 0.4 µM)	relative viability ([2]; first compound 1.265 µM)	relative viability ([2]; first compound 4 µM)
NCI-H2170	0.462	0.483	0.45	0.415	0.411	0.946	0.911	0.873	0.777	0.851	0.792	0.83	0.909	0.714	0.699	0.265	0.266	0.291	0.256	0.263
NCI-H522	0.576	0.611	0.668	0.654	0.524	0.797	0.848	0.761	0.692	0.795	–	–	–	–	–	0.855	1.2	0.892	0.876	0.958
LCLC-97TM1	0.239	0.224	0.228	0.179	0.197	0.195	0.164	0.183	0.238	0.2	0.253	0.31	0.197	0.18	0.129	0.161	0.152	0.153	0.194	0.173
NCI-H1299	–	–	–	–	–	–	–	–	–	–	1.01	1.16	1.06	0.622	1.21	–	–	–	–	–
NCI-H322M	0.674	0.712	0.725	0.705	0.614	0.483	0.611	0.537	0.458	0.62	0.783	0.844	0.734	0.829	0.844	0.62	0.606	0.603	0.539	0.629
NCI-H1395	0.721	–	0.814	0.741	0.66	1.05	0.993	1.11	–	0.96	1.04	–	1.08	0.873	0.943	0.862	0.754	0.896	–	0.845
NCI-H2009	0.354	0.373	0.425	0.361	0.405	0.346	0.299	0.281	0.182	0.246	1.1	1.27	1.19	1.12	1.13	0.98	1.02	0.951	0.992	1.08
NCI-H1651	0.259	0.577	0.657	0.536	0.612	0.884	0.855	0.846	0.791	0.797	1.03	1.05	1.03	0.916	0.785	0.616	0.627	0.684	0.59	0.728
HARA	0.768	–	0.644	0.653	0.442	0.879	0.76	0.454	0.472	0.716	0.889	0.968	0.858	0.805	0.612	0.276	0.242	0.227	0.226	0.222
NCI-H1944	0.426	0.471	0.489	0.425	0.436	0.519	0.406	0.4	0.324	0.352	0.834	–	0.813	0.718	0.52	0.702	0.561	0.61	0.541	0.699
Calu-6	–	–	–	–	–	–	–	–	–	–	0.922	1.07	1.02	0.831	0.769	–	–	–	–	–
NCI-H1703	–	–	–	–	–	–	–	–	–	–	0.363	0.259	0.314	–	0.213	–	–	–	–	–
NCI-H1650	0.479	0.385	0.403	0.31	0.364	0.499	0.707	0.573	0.499	0.672	–	–	–	–	–	0.456	0.333	0.401	0.364	0.393
NCI-H2342	0.77	0.775	0.684	–	0.633	0.748	0.906	0.826	0.503	0.511	–	–	–	–	–	0.785	0.751	0.652	0.518	0.625
ChaGo-K-1	0.412	0.476	0.545	0.516	0.434	0.93	0.894	0.821	0.869	0.859	–	–	–	–	–	0.253	0.261	0.275	0.258	0.262
CAL-12T	–	–	–	–	–	0.256	0.352	0.356	0.267	0.37	1	1.36	1.15	1.23	1.34	1.3	1.18	1.19	1.24	1.18
NCI-H727	0.603	0.83	1	0.865	0.922	0.346	0.325	0.386	0.323	0.379	0.699	0.7	0.692	0.761	0.54	–	–	–	–	–
SW 900	0.326	0.413	0.438	0.414	0.384	0.545	0.679	0.857	–	0.7	–	–	–	–	–	0.439	0.464	0.495	–	0.458
ABC-1	1.09	0.898	1.16	0.883	0.715	–	–	–	–	–	1.34	1.14	1.09	1.1	0.633	–	–	–	–	–
NCI-H1648	0.559	–	0.51	0.525	0.418	0.555	–	–	0.391	0.519	–	–	–	–	–	0.614	–	–	0.769	0.683
IA-LM	–	–	–	–	–	–	–	–	–	–	0.668	0.768	0.797	0.434	0.812	–	–	–	–	–
A549	0.311	0.298	0.278	0.305	0.301	–	–	–	–	–	0.635	0.719	0.58	0.58	0.733	–	–	–	–	–
NCI-H2228	–	–	–	–	–	–	0.471	0.397	0.221	0.586	0.711	0.906	0.681	1.05	0.636	–	0.363	0.335	0.303	0.294

Source: the supplement of paper PMC10307832
